Several values for one entry are separate records, joined by “and”; a condition that tells them apart may be missing. Equal entries are not always repeated. Where two headings read alike, the source gives them in different places.
Experiments:
[1] = molecular target: Ophiocordyceps sp. BRM1 eIF4A iso4 Gly172His; assay: Fluorescence polarization assay, FAM-labeled [AG]10 RNA and recombinant eIF4A; assay type: binding; conditions: for Kd: [AG]10 10 nM, compound 50 µM, read-out: Kd between eIF4A protein and RNA
Method: (§1) The fluorescence polarization assay was performed as previously described ([Chen et al., 2021]). […] After incubation at room temperature for 30 min, the mixture was transferred to a black 384-well microplate (Corning), and the fluorescence polarization was measured by an Infinite F-200 PRO (Tecan). Under ADP + Pi conditions, 1 mM ADP (Fujifilm Wako Chemicals) and 1 mM Na2HPO4 were used as substitutes for AMP-PNP. The data were fitted to the Hill equation to calculate Kd values and visualized by Igor Pro v8.01 (WaveMetrics).

[2] = molecular target: Ophiocordyceps sp. BRM1 eIF4A iso4 WT Gly172; assay: as above; assay type: binding; conditions: for Kd: [AG]10 10 nM, compound 50 µM, read-out: Kd between eIF4A protein and RNA; for fluorescence polarization, Mean / fluorescence polarization, replicates: [AG]10, ADP + Pi, RocA 50 µM
Method: as §1

[3] = [AG]10, ADP + Pi, RocA 50 µM, protein 0.01 μM
[4] = [AG]10, ADP + Pi, RocA 50 µM, protein 0.05 μM
[5] = [AG]10, ADP + Pi, RocA 50 µM, protein 0.075 μM
[6] = [AG]10, ADP + Pi, RocA 50 µM, protein 0.1 μM
[7] = [AG]10, ADP + Pi, RocA 50 µM, protein 0.5 μM
[8] = [AG]10, ADP + Pi, RocA 50 µM, protein 0.75 μM
[9] = [AG]10, ADP + Pi, RocA 50 µM, protein 1 μM
[10] = [AG]10, ADP + Pi, RocA 50 µM, protein 25 μM
[11] = [AG]10, ADP + Pi, RocA 50 µM, protein 50 μM
[12] = [AG]10 RNA, AMP-PNP, RocA, protein concentration 0.01 μM
[13] = [AG]10 RNA, AMP-PNP, RocA, protein concentration 0.05 μM
[14] = [AG]10 RNA, AMP-PNP, RocA, protein concentration 0.075 μM
[15] = [AG]10 RNA, AMP-PNP, RocA, protein concentration 0.1 μM
[16] = [AG]10 RNA, AMP-PNP, RocA, protein concentration 0.5 μM
[17] = [AG]10 RNA, AMP-PNP, RocA, protein concentration 0.75 μM
[18] = [AG]10 RNA, AMP-PNP, RocA, protein concentration 1 μM
[19] = [AG]10 RNA, AMP-PNP, RocA, protein concentration 5 μM
[20] = [AG]10 RNA, AMP-PNP, RocA, protein concentration 7.5 μM
[21] = [AG]10 RNA, AMP-PNP, RocA, protein concentration 10 μM
[22] = [AG]10 RNA, AMP-PNP, RocA, protein concentration 25 μM
[23] = [AG]10 RNA, AMP-PNP, RocA, protein concentration 50 μM

COc1ccc([C@@]23Oc4cc(OC)cc(OC)c4[C@]2(O)[C@H](O)[C@H](C(=O)N(C)C)[C@H]3c2ccccc2)cc1 [RocA, rocaglamide A]
Kd ([1]; ADP + Pi (1 mM each)): 3.9 ± 0.98 µM | Kd ([1]; AMP-PNP 1 mM): 0.051 ± 0.0091 µM | fluorescence polarization, Mean [1, 3]: -0.1448 | fluorescence polarization, replicates [1, 3]: -0.04098 and -0.2377 | fluorescence polarization, Mean [1, 4]: -0.08743 | fluorescence polarization, replicates [1, 4]: -0.08197 and -0.02459 | fluorescence polarization, Mean [1, 5]: -0.06284 | fluorescence polarization, replicates [1, 5]: -0.05738 and -0.123 and -0.008197 | fluorescence polarization, Mean [1, 6]: -0.07923 | fluorescence polarization, replicates [1, 6]: -0.05738 and -0.08197 and -0.09836 | fluorescence polarization, Mean [1, 7]: 0.265 | fluorescence polarization, replicates [1, 7]: 0.2459 and 0.2541 and 0.2951 | fluorescence polarization, Mean [1, 8]: 0.2814 | fluorescence polarization, replicates [1, 8]: 0.3197 and 0.3443 and 0.1803 | fluorescence polarization, Mean [1, 9]: 0.4809 | fluorescence polarization, replicates [1, 9]: 0.4754 and 0.5 and 0.4672 | fluorescence polarization, replicates ([1]; [AG]10, ADP + Pi, RocA 50 µM, protein 5 μM): 0.459 and 0.6639 | fluorescence polarization, Mean ([1]; [AG]10, ADP + Pi, RocA 50 µM, protein 7.5 μM): 0.7978 | fluorescence polarization, replicates ([1]; [AG]10, ADP + Pi, RocA 50 µM, protein 10 μM): 0.5246 and 0.5902 and 0.582 | fluorescence polarization, Mean [1, 10]: 0.8743 | fluorescence polarization, replicates [1, 10]: 0.8197 and 0.877 and 0.9262 | fluorescence polarization, Mean [1, 11]: 1.003 | fluorescence polarization, replicates [1, 11]: 1.033 and 1.0082 | Fluorescence polarization, Replicate 1-3 [1, 12]: 0.06831 and 0.1421 and 0.06011 | fluorescence polarization, Mean [1, 12]: 0.09016 | Fluorescence polarization, Replicate 1-3 [1, 13]: 0.5929 and 0.5109 and 0.4781 | fluorescence polarization, Mean [1, 13]: 0.5273 | Fluorescence polarization, Replicate 1-3 [1, 14]: 0.5519 and 0.5601 (2×) | fluorescence polarization, Mean [1, 14]: 0.5574 | Fluorescence polarization, Replicate 1-3 [1, 15]: 0.6093 and 0.6749 and 0.5519 | fluorescence polarization, Mean [1, 15]: 0.612 | Fluorescence polarization, Replicate 1-3 [1, 16]: 0.8716 (2×) and 0.806 | fluorescence polarization, Mean [1, 16]: 0.8497 | Fluorescence polarization, Replicate 1-3 [1, 17]: 0.8798 and 0.8634 and 0.9126 | fluorescence polarization, Mean [1, 17]: 0.8852 | Fluorescence polarization, Replicate 1-3 [1, 18]: 0.9536 and 0.9372 and 0.8716 | fluorescence polarization, Mean [1, 18]: 0.9208 | Fluorescence polarization, Replicate 1-3 [1, 19]: 0.9372 (2×) and 0.9044 | fluorescence polarization, Mean [1, 19]: 0.9262 | Fluorescence polarization, Replicate 1-3 [1, 20]: 0.8716 and 0.9126 and 0.9044 | fluorescence polarization, Mean [1, 20]: 0.8962 | Fluorescence polarization, Replicate 1-3 [1, 21]: 0.9536 and 0.929 and 0.8552 | fluorescence polarization, Mean [1, 21]: 0.9126 | Fluorescence polarization, Replicate 1-3 [1, 22]: 0.9372 and 1.027 and 0.9536 | fluorescence polarization, Mean [1, 22]: 0.9727 | Fluorescence polarization, Replicate 1-3 [1, 23]: 1.044 (2×) and 1.027 | fluorescence polarization, Mean [1, 23]: 1.038 | Kd ([2]; ADP + Pi (1 mM each)): ~17 µM and 17 µM | Kd ([2]; AMP-PNP 1 mM): 0.23 ± 0.05 µM | fluorescence polarization, Mean ([2]; protein 0.01 μM): -0.01093 | fluorescence polarization, replicates ([2]; protein 0.01 μM): 0.0929 | fluorescence polarization, Mean ([2]; protein 0.05 μM): -0.1393 | fluorescence polarization, replicates ([2]; protein 0.05 μM): -0.2186 | fluorescence polarization, Mean ([2]; protein 0.075 μM): -0.09563 | fluorescence polarization, replicates ([2]; protein 0.075 μM): -0.03825 and -0.2268 | fluorescence polarization, Mean ([2]; protein 0.1 μM): -0.08743 | fluorescence polarization, replicates ([2]; protein 0.1 μM): -0.09563 | fluorescence polarization, Mean ([2]; protein 0.5 μM): -0.2951 | fluorescence polarization, replicates ([2]; protein 0.5 μM): -0.2432 and -0.2923 and -0.3497 | fluorescence polarization, Mean ([2]; protein 0.75 μM): -0.347 | fluorescence polarization, replicates ([2]; protein 0.75 μM): -0.3169 and -0.3661 and -0.3579 | fluorescence polarization, Mean ([2]; protein 1 μM): -0.2568 | fluorescence polarization, replicates ([2]; protein 1 μM): -0.1858 and -0.2104 and -0.3743 | fluorescence polarization, Mean ([2]; protein 5 μM): -0.112 | fluorescence polarization, replicates ([2]; protein 5 μM): -0.1448 and -0.1612 | fluorescence polarization, Mean ([2]; protein 7.5 μM): -0.1202 | fluorescence polarization, replicates ([2]; protein 7.5 μM): -0.08743 | fluorescence polarization, Mean ([2]; protein 10 μM): 0.002732 | fluorescence polarization, replicates ([2]; protein 10 μM): -0.005465 | fluorescence polarization, Mean ([2]; protein 25 μM): 0.2951 | fluorescence polarization, replicates ([2]; protein 25 μM): 0.265 | fluorescence polarization, Mean ([2]; protein 50 μM): 0.4044

From PMC9977294, “A parasitic fungus employs mutated eIF4A to survive on rocaglate-synthesizing Aglaia plants” (eLife, 2023)
